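In this assay, cells in 96-well plates receive the compound at five concentrations for 48 hours. Endpoints are linearly interpolated between the surrounding concentrations. Here, GI50 denotes the concentration required for 50% inhibition of growth. The concentration for full growth arrest is given as TGI.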
Key:
Experiment in all cases: growth of human tumour cells (NCI), 48 h
U251 CNS = tested on: U251 CNS
SW-620 colon = tested on: SW-620 colon
SK-MEL-5 melanoma = tested on: SK-MEL-5 melanoma
UO-31 renal = tested on: UO-31 renal
SF-539 CNS = tested on: SF-539 CNS
SR leukemia = tested on: SR leukemia
HCT-15 colon = tested on: HCT-15 colon
MOLT-4 leukemia = tested on: MOLT-4 leukemia
K-562 leukemia = tested on: K-562 leukemia
A498 renal = tested on: A498 renal

Compound	TGI (U251 CNS) [µM]	TGI (SW-620 colon) [µM]	TGI (SK-MEL-5 melanoma) [µM]	TGI (UO-31 renal) [µM]	TGI (SF-539 CNS) [µM]	TGI (SR leukemia) [µM]	TGI (HCT-15 colon) [µM]	TGI (MOLT-4 leukemia) [µM]	TGI (K-562 leukemia) [µM]	TGI (A498 renal) [µM]	GI50 (U251 CNS) [µM]	GI50 (SW-620 colon) [µM]	GI50 (SK-MEL-5 melanoma) [µM]	GI50 (UO-31 renal) [µM]	GI50 (A498 renal) [µM]	GI50 (SR leukemia) [nM]	GI50 (HCT-15 colon) [µM]	GI50 (MOLT-4 leukemia) [µM]	GI50 (K-562 leukemia) [µM]
Oc1cccc2c1NC1=C(CCC/C1=C\c1ccccc1)C2	> 100	> 100	> 100	> 100	> 100	> 100	> 100	> 100	> 100	–	–	–	–	–	–	–	–	–	–
CC(Cn1c2c3ccccc3ccc2c2oc(=O)c3ccccc3c21)N(C)C (configuration not stated)	> 100	> 100	–	> 100	> 100	> 100	> 100	> 100	> 100	–	–	–	–	–	–	–	–	–	–
CC(=O)N(C)OC(=O)CC(=O)c1ccccc1	> 100	> 100	> 100	> 100	> 100	> 100	–	> 100	> 100	–	–	–	–	–	–	–	–	–	–
CN(C)c1ccc(-c2cc(=O)c3ccccc3[nH]2)cc1	> 100	> 100	–	> 100	> 100	> 100	> 100	> 100	> 100	–	–	–	–	–	–	–	–	–	–
CCCc1c2c([nH]c(=O)c1C)C(=O)c1[nH]c(=O)c(C)c(CCC)c1C2=O	–	20.2	17.6	> 100	> 100	42.2	58.3	57	67.1	> 100	–	–	–	–	–	–	–	–	–
CC/C=C\C[C@H](O)C/C=C1/C(=O)C=C[C@@H]1C/C=C\CCCC(=O)NC(C)C	7.08	10.8	3.35	4.11	–	8.33	4.92	11	38.9	16.3	2.61	3.16	1.8	1.94	5.16	2430	2.02	2.72	2.86
O=C(Cc1nc2ccccc2s1)C(=O)Nc1ccc(Cl)cc1	> 100	> 100	> 100	> 100	> 100	–	> 100	> 100	> 100	> 100	–	–	–	–	–	–	–	–	–
COc1cc(Nc2cnc3cc(C(F)(F)F)ccc3n2)cc(OC)c1OC	> 100	> 100	–	> 100	> 100	> 100	> 100	> 100	–	–	–	–	–	–	–	–	–	–	–
O=C(Nc1ccc(Cl)c(C(F)(F)F)c1)C(=O)C(C(=O)/C=C/c1ccccc1)C1OC(=O)c2ccccc21 (configuration not stated)	> 100	> 100	–	> 100	–	> 100	> 100	> 100	> 100	> 100	–	–	–	–	–	–	–	–	–
CCNc1nnc(CSc2nc(-c3ccccc3)c(-c3ccccc3)[nH]2)s1	26.9	44.1	24.1	29.5	33.2	> 100	43.8	56.7	–	–	–	–	–	–	–	–	–	–	–
Nc1ccccc1C#CC#Cc1ccccc1N	21	35.3	17.9	> 100	–	69.8	25.5	> 100	> 100	–	8.53	15.7	4.36	8	–	–	11.4	16.3	5.78

— PubChem BioAssay (NCI)
